Literature values, collected in patent US5484728A (priority 1994, dated 1996).

CCOP(=S)(OCC)Oc1cc(C)nc(C(C)C)n1 [diazinon]
half-life of diazinon in soil without enzyme present: 226 h
